From patent US12715858B2, “Pyridazinone compounds” (INVENTISBIO CO., LTD., priority 2020, dated 2026)
Converted amounts (≈) assume the structure as drawn. Where two headings read alike, the source gives them in different places.

Columns and labels:
Type in all cases: physicochemical
[1] = Solid state stability at 60° C. and 40° C./75% RH for 7 days (HPLC purity, XRPD)
Protocol: HPLC analysis was performed with an Agilent HPLC 1260 series instrument.
Appropriate amount of free acid Form I, potassium salts Form 1 and Form 2, and sodium salt Form A were placed at 60° C. and 40° C./75% RH for 7 days. At 0 and 7 days, the samples were dissolved in diluent to prepare a solution of 0.5 mg/mL for HPLC purity analysis. Solid samples were analyzed by XRPD to check the crystal form.

[2] = Solubility in water and bio-relevant media at 37° C. (HPLC of filtrate, pH of filtrate, XRPD of filter cake); settings: for solubility at 24 h: read-out: Solubility (mg/mL) 24 h; for Solubility (mg/mL) 0.5 h / Solubility (mg/mL) 2 h / Solubility (mg/mL) 24 h: LOQ is 0.5 μg/mL; for XRPD: filter cake obtained at 2 or 24 hours; for PH 0.5 h / PH 2 h / PH 24 h: pH of the filtrate
Protocol: Solubility of Form I of free acid, Form 1 and Form 2 of potassium salt, and Form A of sodium salt were tested in water and in bio-relevant media of Simulated Intestinal Fluid (SIF), Simulated Gastric Fluid (SGF), Fasted State Simulated Intestinal Fluid (FaSSIF), and Fed State Simulated Intestinal Fluid (FeSSIF) at 37° C. up to 24 hours. About 12 mg of the sample was weighed into sample vials and then 1.5 mL of each media was added to make suspensions respectively. All suspensions were shaken at 37° C. with 200 rpm.

[3] = Dynamic Vapor Sorption (DVS)
Protocol: Dynamic Vapor Sorption (DVS): Moisture sorption/desorption data was collected on a IGASorp DVS. The sample was placed into a tarred sample chamber and weighed automatically. The sample was dried at 50° C. until the % RH was less than 0.3% and cooled to 25° C. Set the instrument parameters as below.

[4] = Physical stability upon grinding and high humidity
Protocol: Physical stability of Form I was evaluated upon grinding and high humidity (RT/92.5% RH for 24 days). For mechanical treatment study, Form I (10 mg) was ground manually for 5 min, and the sample was analyzed by XRPD after grinding for 2 and 5 min, respectively.

Structure (SMILES): Cc1nn(-c2cc(Cl)c(Oc3cc(C(C)C)c(=O)[nH]n3)c(Cl)c2)c(=O)[nH]c1=O [Free acid Form I, 2-(3,5-dichloro-4-((5-isopropyl-6-oxo-1,6-dihydropyridazin-3-yl)oxy)phenyl)-6-methyl-1,2,4-triazine-3,5(2H,4H)-dione]
- Purity at Day 7 (Area %) 40° C./75% RH ([1]; 7 days at 40° C./75% RH, HPLC): 96.42 Area %
- Purity at Day 7 (Area %) 60° C. ([1]; 7 days at 60° C., HPLC): 96.47 Area %
- XRPD 40° C./75% RH ([1]; crystal form after 7 days at 40° C./75% RH): Unchanged
- XRPD 60° C. ([1]; crystal form after 7 days at 60° C.): Unchanged
- Initial Purity (Area %) ([1]; day 0, HPLC): 96.45 Area %
- solubility at 24 h ([2]; FaSSIF (Fasted State Simulated Intestinal Fluid), thermodynamic from solid, FaSSIF, 37° C.): 0.00052 mg/mL (≈ 1.23 µM)
- Solubility (mg/mL) 0.5 h ([2]; FaSSIF, 37° C., 0.5 h): <LOQ
- Solubility (mg/mL) 2 h ([2]; FaSSIF, 37° C., 2 h): <LOQ
- Solubility (mg/mL) 0.5 h ([2]; SGF, 37° C., 0.5 h): <LOQ
- Solubility (mg/mL) 2 h ([2]; SGF, 37° C., 2 h): <LOQ
- Solubility (mg/mL) 24 h ([2]; SGF, 37° C.): <LOQ
- Solubility (mg/mL) 0.5 h ([2]; SIF, 37° C., 0.5 h): <LOQ
- Solubility (mg/mL) 2 h ([2]; SIF, 37° C., 2 h): <LOQ
- Solubility (mg/mL) 24 h ([2]; SIF, 37° C.): <LOQ
- Solubility (mg/mL) 0.5 h ([2]; Water, 37° C., 0.5 h): <LOQ
- Solubility (mg/mL) 2 h ([2]; Water, 37° C., 2 h): <LOQ
- Solubility (mg/mL) 24 h ([2]; Water, 37° C.): <LOQ
- XRPD ([2]; FaSSIF): unchanged
- XRPD ([2]; SGF): unchanged
- XRPD ([2]; SIF): unchanged
- XRPD ([2]; Water): unchanged
- PH 0.5 h ([2]; FaSSIF, 0.5 h): 6.72
- PH 2 h ([2]; FaSSIF, 2 h): 6.60
- PH 24 h ([2]; FaSSIF): 6.74
- PH 0.5 h ([2]; FeSSIF, 0.5 h): 4.91
- PH 2 h ([2]; FeSSIF, 2 h): 4.86
- PH 24 h ([2]; FeSSIF): 5.00
- PH 0.5 h ([2]; SGF, 0.5 h): 1.17
- PH 2 h ([2]; SGF, 2 h): 1.19
- PH 24 h ([2]; SGF): 1.16
- PH 0.5 h ([2]; SIF, 0.5 h): 6.89
- PH 2 h ([2]; SIF, 2 h): 6.86
- PH 24 h ([2]; SIF): 6.79
- PH 0.5 h ([2]; Water, 0.5 h): 6.48
- PH 2 h ([2]; Water, 2 h): 6.59
- PH 24 h ([2]; Water): 6.44
- solubility at 0.5 h ([2]; thermodynamic from solid, FeSSIF, 37° C., 0.5 h, read-out: Solubility (mg/mL) 0.5 h): 0.00056 mg/mL (≈ 1.32 µM)
- solubility at 2 h ([2]; thermodynamic from solid, FeSSIF, 37° C., 2 h, read-out: Solubility (mg/mL) 2 h): 0.001 mg/mL (≈ 2.36 µM)
- solubility at 24 h ([2]; thermodynamic from solid, FeSSIF, 37° C.): 0.0011 mg/mL (≈ 2.59 µM)
- hygroscopicity ([3]; DVS): slightly hygroscopic
- crystal form of solid after the DVS study ([3]; XRPD after DVS): remained unchanged
- water uptake / weight gain by DVS ([3]; at 80% RH (Form I: 0 to 80% RH), 25° C.): 0.9%
- form change upon high humidity ([4]; RT/92.5% RH for 24 days): no form change was observed
- crystal form (XRPD) after grinding ([4]; ground manually, up to 5 min): remained unchanged
- crystallinity after grinding ([4]; ground manually, up to 5 min): significantly decreased
